Measured values published in article PMC8550792, “Evolution of kinase polypharmacology across HSP90 drug discovery” (Cell Chemical Biology, 2021).
Read-outs that look alike come from different tables or passages of the source.

What was measured:
Assay in all cases: biochemical
Assay type in all cases: biochemical
382 unique human kinases [1] = target: T1, 382 unique human kinases (Homo sapiens, UniProt P10398); conditions: compound at 10 uM, duplicate values
T1 construct: purchased Reaction Biology (HotSpot contract assay)
T1 sequence (P10398 1-606): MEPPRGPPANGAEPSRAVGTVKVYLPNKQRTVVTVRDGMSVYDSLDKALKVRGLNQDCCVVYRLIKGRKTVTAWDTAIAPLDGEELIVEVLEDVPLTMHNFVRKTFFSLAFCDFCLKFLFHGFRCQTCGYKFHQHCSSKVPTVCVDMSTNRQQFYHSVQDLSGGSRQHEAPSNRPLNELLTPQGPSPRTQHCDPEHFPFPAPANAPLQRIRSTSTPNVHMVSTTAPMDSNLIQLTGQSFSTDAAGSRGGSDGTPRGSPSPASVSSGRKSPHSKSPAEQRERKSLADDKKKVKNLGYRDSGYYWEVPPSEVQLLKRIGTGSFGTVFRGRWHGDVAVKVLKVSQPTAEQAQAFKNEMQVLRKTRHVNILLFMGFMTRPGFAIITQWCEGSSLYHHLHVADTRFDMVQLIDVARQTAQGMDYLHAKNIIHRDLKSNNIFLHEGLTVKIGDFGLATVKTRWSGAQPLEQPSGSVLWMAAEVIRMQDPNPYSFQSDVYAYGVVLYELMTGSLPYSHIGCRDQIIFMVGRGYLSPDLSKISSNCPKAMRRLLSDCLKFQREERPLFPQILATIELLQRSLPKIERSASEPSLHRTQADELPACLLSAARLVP

382 unique human kinases [2] = target: T2, 382 unique human kinases (Homo sapiens, UniProt P15056, K601E); conditions: BRAF (K601E), compound at 10 uM, duplicate values; for remaining activity at 10 µM: read-out: % Enzyme Activity (relative to DMSO controls)
T2 construct: purchased Reaction Biology (HotSpot contract assay)

382 unique human kinases [3] = target: T3, 382 unique human kinases (Homo sapiens, UniProt Q12851); conditions: GCK/MAP4K2, 10 uM; for remaining activity at 10 µM: read-out: % Enzyme Activity (relative to DMSO controls)
T3 construct: purchased Reaction Biology (HotSpot contract assay)
T3 sequence (Q12851 1-820): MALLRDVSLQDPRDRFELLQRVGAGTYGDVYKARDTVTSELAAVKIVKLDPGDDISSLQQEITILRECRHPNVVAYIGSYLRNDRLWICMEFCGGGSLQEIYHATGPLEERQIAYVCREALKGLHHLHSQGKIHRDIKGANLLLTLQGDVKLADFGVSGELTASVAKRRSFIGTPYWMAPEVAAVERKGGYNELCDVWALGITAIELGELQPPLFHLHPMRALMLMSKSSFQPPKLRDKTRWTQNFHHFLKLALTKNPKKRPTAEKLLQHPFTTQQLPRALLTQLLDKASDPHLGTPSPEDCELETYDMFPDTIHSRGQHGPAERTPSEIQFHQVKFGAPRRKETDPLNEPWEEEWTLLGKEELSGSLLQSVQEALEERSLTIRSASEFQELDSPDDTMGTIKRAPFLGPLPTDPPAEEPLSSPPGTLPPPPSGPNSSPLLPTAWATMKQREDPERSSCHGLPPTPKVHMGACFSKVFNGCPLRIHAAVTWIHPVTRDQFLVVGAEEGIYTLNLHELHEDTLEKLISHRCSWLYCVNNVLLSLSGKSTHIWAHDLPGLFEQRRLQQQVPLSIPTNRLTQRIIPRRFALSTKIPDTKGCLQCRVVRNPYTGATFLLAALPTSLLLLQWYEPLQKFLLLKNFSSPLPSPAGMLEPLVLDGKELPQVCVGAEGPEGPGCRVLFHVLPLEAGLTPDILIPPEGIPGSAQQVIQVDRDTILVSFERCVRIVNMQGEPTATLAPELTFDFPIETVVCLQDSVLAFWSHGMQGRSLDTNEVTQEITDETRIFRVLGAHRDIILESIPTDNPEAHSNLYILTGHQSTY

382 unique human kinases [4] = target: T4, 382 unique human kinases (Homo sapiens, UniProt P15056, V600A); conditions: BRAF (V600A), compound at 10 uM, duplicate values; for remaining activity at 10 µM: read-out: % Enzyme Activity (relative to DMSO controls)
T4 construct: purchased Reaction Biology (HotSpot contract assay)

382 unique human kinases [5] = target: T5, 382 unique human kinases (Homo sapiens, UniProt P16234); conditions: kinase PDGFRa, compound 10 uM; for remaining activity at 10 µM: read-out: % Enzyme Activity (relative to DMSO controls)
T5 construct: purchased Reaction Biology (HotSpot contract assay)

382 unique human kinases [6] = target: T6, 382 unique human kinases (Homo sapiens, UniProt Q6VAB6, R676S); conditions: KSR2 (R676S), 10 uM; for remaining activity at 10 µM: read-out: % Enzyme Activity (relative to DMSO controls)
T6 construct: purchased Reaction Biology (HotSpot contract assay)
T6 sequence (Q6VAB6 1-950 R676S): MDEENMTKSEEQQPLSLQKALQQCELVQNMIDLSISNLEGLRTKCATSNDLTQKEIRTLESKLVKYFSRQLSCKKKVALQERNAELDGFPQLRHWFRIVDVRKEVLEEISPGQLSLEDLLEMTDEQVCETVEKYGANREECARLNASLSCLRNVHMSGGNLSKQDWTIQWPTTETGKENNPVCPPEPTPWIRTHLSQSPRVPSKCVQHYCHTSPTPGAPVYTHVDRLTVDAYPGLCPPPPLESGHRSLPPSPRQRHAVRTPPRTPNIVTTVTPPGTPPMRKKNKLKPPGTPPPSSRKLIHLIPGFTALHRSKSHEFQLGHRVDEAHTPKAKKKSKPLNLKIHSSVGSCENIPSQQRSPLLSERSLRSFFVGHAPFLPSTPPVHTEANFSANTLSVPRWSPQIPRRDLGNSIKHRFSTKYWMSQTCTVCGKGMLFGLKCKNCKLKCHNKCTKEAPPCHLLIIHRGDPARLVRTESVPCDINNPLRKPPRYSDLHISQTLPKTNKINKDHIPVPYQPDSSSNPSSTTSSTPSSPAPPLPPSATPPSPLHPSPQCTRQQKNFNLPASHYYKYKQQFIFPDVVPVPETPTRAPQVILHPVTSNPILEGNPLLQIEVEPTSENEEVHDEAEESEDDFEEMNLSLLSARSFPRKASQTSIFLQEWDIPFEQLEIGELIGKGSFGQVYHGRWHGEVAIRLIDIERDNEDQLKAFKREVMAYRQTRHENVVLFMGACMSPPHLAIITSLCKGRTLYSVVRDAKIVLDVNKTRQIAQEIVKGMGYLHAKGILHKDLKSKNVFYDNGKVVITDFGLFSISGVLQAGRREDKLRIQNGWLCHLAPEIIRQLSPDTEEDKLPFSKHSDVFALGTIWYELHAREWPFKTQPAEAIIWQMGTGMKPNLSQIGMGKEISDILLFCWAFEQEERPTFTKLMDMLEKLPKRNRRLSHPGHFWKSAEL

382 unique human kinases [7] = target: T7, 382 unique human kinases (Homo sapiens, UniProt Q9UM73, G1202R); conditions: ALK (G1202R), [ATP] 20 µM, compound 10 uM; for remaining activity at 10 µM: read-out: % Enzyme Activity (relative to DMSO controls)
T7 construct: purchased Reaction Biology (HotSpot contract assay)
T7 sequence (Q9UM73 19-1620 G1202R): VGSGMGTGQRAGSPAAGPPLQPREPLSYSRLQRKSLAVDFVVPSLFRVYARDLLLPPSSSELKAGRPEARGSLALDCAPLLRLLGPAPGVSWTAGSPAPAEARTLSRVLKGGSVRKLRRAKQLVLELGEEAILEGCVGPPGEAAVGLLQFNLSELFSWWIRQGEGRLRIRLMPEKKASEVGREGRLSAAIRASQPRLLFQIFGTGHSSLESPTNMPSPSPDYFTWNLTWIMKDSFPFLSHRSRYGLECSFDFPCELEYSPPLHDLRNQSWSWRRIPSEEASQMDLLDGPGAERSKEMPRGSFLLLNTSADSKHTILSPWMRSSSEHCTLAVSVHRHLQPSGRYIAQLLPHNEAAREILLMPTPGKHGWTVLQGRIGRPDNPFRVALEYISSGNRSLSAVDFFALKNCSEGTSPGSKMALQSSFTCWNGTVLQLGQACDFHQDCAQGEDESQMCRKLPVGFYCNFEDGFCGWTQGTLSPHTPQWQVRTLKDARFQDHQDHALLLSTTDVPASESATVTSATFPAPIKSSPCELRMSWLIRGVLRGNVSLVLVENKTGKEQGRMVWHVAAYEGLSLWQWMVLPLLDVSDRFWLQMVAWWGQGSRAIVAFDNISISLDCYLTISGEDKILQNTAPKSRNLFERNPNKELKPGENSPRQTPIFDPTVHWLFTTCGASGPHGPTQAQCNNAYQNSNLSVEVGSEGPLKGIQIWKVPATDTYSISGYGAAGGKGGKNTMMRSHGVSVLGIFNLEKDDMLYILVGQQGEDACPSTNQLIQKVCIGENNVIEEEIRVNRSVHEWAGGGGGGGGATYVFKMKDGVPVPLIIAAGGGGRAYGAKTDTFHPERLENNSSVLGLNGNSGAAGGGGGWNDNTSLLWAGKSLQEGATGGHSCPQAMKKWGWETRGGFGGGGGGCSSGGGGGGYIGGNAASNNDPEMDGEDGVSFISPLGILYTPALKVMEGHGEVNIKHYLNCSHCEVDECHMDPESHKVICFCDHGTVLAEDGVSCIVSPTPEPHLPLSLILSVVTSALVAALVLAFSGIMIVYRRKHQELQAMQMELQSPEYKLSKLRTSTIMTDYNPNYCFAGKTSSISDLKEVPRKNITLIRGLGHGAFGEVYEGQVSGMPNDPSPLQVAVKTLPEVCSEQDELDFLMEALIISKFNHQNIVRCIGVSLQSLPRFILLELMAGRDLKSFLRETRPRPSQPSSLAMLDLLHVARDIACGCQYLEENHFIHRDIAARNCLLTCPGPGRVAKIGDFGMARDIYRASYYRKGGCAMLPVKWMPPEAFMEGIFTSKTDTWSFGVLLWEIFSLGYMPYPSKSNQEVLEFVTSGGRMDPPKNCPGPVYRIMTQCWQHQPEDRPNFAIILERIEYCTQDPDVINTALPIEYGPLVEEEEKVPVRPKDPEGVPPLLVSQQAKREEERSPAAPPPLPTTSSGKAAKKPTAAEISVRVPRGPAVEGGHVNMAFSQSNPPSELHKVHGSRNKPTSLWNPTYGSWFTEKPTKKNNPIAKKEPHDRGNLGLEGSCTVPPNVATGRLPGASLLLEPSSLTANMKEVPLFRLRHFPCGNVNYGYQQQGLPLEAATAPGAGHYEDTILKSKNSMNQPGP

T4 sequence (P15056 whole entry V600A): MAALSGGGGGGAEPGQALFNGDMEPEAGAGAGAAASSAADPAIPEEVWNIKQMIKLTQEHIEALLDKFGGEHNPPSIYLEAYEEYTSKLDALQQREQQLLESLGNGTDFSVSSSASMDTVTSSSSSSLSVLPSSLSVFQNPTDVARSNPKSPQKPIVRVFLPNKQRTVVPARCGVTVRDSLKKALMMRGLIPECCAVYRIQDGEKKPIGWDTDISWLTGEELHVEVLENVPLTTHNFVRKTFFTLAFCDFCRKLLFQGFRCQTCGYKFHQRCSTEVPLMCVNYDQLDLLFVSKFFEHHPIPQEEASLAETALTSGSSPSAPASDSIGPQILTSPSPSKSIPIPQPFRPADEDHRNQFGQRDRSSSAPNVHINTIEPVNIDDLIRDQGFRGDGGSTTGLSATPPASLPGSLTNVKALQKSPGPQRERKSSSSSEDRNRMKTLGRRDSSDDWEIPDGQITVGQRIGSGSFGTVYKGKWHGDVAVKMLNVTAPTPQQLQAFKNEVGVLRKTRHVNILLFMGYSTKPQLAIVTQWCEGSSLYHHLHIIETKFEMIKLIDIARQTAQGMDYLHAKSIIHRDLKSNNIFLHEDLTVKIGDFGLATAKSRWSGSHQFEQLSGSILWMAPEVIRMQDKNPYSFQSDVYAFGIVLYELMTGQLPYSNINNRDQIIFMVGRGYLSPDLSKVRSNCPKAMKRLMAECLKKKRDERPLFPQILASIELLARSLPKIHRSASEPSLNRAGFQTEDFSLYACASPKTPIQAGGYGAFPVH
T5 sequence (P16234 24-1089): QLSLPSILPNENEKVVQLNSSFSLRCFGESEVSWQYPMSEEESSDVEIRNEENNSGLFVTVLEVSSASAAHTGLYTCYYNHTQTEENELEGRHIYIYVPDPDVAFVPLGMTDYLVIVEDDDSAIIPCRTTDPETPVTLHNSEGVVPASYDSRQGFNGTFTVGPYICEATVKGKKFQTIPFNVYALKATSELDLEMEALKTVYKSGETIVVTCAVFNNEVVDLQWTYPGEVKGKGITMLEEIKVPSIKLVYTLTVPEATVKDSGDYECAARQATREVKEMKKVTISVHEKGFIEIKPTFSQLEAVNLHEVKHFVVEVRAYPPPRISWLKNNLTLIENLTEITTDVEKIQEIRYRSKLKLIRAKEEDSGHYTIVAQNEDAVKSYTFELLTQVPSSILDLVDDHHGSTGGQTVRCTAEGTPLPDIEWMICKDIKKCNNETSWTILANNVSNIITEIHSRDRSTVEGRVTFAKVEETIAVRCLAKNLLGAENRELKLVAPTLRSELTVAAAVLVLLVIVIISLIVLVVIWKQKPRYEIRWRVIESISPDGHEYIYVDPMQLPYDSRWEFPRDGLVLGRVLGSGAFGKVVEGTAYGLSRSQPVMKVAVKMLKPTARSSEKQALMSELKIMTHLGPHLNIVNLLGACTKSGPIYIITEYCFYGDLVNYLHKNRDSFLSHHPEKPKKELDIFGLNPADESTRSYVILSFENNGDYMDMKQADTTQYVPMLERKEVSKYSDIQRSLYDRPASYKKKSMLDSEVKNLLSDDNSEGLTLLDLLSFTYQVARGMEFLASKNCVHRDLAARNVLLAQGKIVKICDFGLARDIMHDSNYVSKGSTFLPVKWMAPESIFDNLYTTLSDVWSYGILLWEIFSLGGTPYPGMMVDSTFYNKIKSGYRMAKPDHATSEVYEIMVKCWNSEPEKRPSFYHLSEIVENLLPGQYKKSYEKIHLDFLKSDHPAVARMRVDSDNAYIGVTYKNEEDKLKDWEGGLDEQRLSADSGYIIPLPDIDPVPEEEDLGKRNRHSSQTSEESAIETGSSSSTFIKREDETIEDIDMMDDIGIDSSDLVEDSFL
T2 sequence (P15056 whole entry K601E): as the sequence (P15056 whole entry V600A) above, with A600V, K601E counted along it

Row | SMILES | remaining activity at 10 µM (382 unique human kinases [1]; read-out: % Enzyme Activity (relative to DMSO controls), ARAF) [%] | remaining activity at 10 µM (382 unique human kinases [2]) [%] | remaining activity at 10 µM (382 unique human kinases [3]) [%] | remaining activity at 10 µM (382 unique human kinases [4]) [%] | remaining activity at 10 µM (382 unique human kinases [5]) [%] | remaining activity at 10 µM (382 unique human kinases [6]) [%] | remaining activity at 10 µM (382 unique human kinases [7]) [%] | % Enzyme Activity (relative to DMSO controls) (382 unique human kinases [6]) [%] | % Enzyme Activity (relative to DMSO controls) (382 unique human kinases [7]) [%] | % Enzyme Activity (relative to DMSO controls) (382 unique human kinases [1]; ARAF) [%] | remaining activity at 10 µM (382 unique human kinases [1]; ARAF, read-out: % Enzyme Activity (relative to DMSO controls)) [%] | % Enzyme Activity (relative to DMSO controls) (382 unique human kinases [2]) [%] | % Enzyme Activity (relative to DMSO controls) (382 unique human kinases [3]) [%] | % Enzyme Activity (relative to DMSO controls) (382 unique human kinases [4]) [%] | % Enzyme Activity (relative to DMSO controls) (382 unique human kinases [5]) [%]
1 | CC(C)c1cc(-c2n[nH]c(=O)n2-c2ccc3c(ccn3C)c2)c(O)cc1O [Ganetespib (STA9090)] | 158 | 107 | 76 | 119 | 82.6 |  |  |  |  |  |  |  |  |  | 
2 | CC(C)c1cc(-c2n[nH]c(=O)n2-c2ccc3c(ccn3C)c2)c(O)cc1O [Ganetespib] |  |  |  |  |  | 93 | 52.8 |  |  |  |  |  |  |  | 
3 | CCNC(=O)c1noc(-c2cc(C(C)C)c(O)cc2O)c1-c1ccc(CN2CCOCC2)cc1 [Luminespib] |  |  |  |  |  | 96.8 | 104 | 96.29 | 100.40 |  |  |  |  |  | 
4 | CCNC(=O)c1noc(-c2cc(C(C)C)c(O)cc2O)c1-c1ccc(CN2CCOCC2)cc1 [Luminespib (AUY-922)] |  | 101 | 97.2 | 105 | 85.4 |  |  |  |  | 107.23 | 107 | 100.38 | 94.14 | 102.37 | 83.27
